Measured values as given in article PMC2667211, “Kinase Domain Insertions Define Distinct Roles of CLK Kinases in SR Protein Phosphorylation” (Structure(London, England:1993), 2009).

Tests used:
CLK1 = CLK1 (Homo sapiens, UniProt P49759); experiment: coupled-enzyme kinase assay at […] inhibitor; thermal shift […]°C; type: biochemical
CLK3 = target: T1, CLK3 (Homo sapiens, UniProt P49761); experiment: kinase assay at […] inhibitor; thermal shift screening; type: biochemical
T1 construct: kinase domain, residues 127–484
T1 sequence (P49761 127-484): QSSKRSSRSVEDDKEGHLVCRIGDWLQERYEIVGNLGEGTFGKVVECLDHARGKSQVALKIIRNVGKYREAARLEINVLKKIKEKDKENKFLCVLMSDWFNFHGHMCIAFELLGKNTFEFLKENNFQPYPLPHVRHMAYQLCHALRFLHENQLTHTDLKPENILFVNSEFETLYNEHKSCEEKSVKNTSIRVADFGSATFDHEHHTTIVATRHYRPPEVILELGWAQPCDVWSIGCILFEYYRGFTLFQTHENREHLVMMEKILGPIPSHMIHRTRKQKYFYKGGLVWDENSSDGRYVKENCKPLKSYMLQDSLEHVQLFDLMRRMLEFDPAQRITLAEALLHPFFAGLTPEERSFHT

Sequence of CLK1 (P49759 148-484): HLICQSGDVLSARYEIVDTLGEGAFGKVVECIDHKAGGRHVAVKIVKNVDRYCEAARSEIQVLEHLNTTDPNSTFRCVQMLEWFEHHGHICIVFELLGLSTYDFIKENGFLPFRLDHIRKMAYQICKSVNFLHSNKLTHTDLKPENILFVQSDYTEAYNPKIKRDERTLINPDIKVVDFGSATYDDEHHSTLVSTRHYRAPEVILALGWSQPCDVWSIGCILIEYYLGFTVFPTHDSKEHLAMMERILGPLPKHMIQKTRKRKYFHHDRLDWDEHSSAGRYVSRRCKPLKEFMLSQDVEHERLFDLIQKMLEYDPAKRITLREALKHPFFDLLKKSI

% activity at 100 nM (CLK1): < 1
% activity at 100 nM (CLK3): < 50
Compound: Nc1nc(Nc2ccc(S(N)(=O)=O)cc2)nn1C(=S)Nc1c(F)cccc1F [compound 11, CDK1/2 inhibitor]
